#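 Step 1: Grow cells in 96-well plates. Step 2: Expose to compound for 48 hours at 5 concentrations. Step 3: Interpolate endpoints linearly; if unreached, use highest concentration. The concentration for full growth arrest is given as TGI.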
# Legend:
# Experiment in all cases: inhibition of tumour cell growth, NCI panel, 48 h
# 786-0 renal = system: 786-0 renal
# DU-145 prostate = system: DU-145 prostate
# EKVX NSCLC = system: EKVX NSCLC
# K-562 leukemia = system: K-562 leukemia
# M14 melanoma = system: M14 melanoma
# MDA-MB-435 = system: MDA-MB-435
# OVCAR-3 ovarian = system: OVCAR-3 ovarian
# OVCAR-4 ovarian = system: OVCAR-4 ovarian
# U251 CNS = system: U251 CNS
# UACC-62 melanoma = system: UACC-62 melanoma
structure (smiles),measurement,setting,value
Cc1ccccc1C(=O)N/N=C/c1ccc(Sc2nccn2C)c([N+](=O)[O-])c1,TGI,786-0 renal,> 100 µM
same,TGI,DU-145 prostate,> 100 µM
same,TGI,EKVX NSCLC,> 100 µM
same,TGI,K-562 leukemia,> 100 µM
same,TGI,M14 melanoma,> 100 µM
same,TGI,MDA-MB-435,81.1 µM
same,TGI,OVCAR-3 ovarian,> 100 µM
same,TGI,OVCAR-4 ovarian,> 100 µM
same,TGI,U251 CNS,> 100 µM
same,TGI,UACC-62 melanoma,> 100 µM

# — PubChem BioAssay (NCI)
